According to ChEMBL document CHEMBL1133098, “Subtype-selective N-methyl-D-aspartate receptor antagonists: benzimidazalone and hydantoin as phenol replacements” (J Med Chem, 2000):

How the values were obtained:
Format in all cases: cell-based, Oocyte
[1] = target: Glutamate NMDA receptor; Grin1/Grin2b (Rattus norvegicus, UniProt P35439+Q00960); assay: In vitro inhibition of NMDA responses at NR1A/2B receptor expressed in Xenopus oocytes
[2] = target: Glutamate receptor ionotropic, NMDA 2C (Rattus norvegicus, UniProt P35439+Q00961); assay: In vitro inhibition of NMDA responses at NR1A/2C receptor expressed in Xenopus oocytes
[3] = target: Glutamate NMDA receptor; Grin1/Grin2a (Rattus norvegicus, UniProt P35439+Q00959); assay: In vitro inhibition of NMDA responses at NR1A/2A receptor expressed in Xenopus oocytes
Chain of Glutamate NMDA receptor; Grin1/Grin2a (Q00959 whole entry, looked up, other chains not shown): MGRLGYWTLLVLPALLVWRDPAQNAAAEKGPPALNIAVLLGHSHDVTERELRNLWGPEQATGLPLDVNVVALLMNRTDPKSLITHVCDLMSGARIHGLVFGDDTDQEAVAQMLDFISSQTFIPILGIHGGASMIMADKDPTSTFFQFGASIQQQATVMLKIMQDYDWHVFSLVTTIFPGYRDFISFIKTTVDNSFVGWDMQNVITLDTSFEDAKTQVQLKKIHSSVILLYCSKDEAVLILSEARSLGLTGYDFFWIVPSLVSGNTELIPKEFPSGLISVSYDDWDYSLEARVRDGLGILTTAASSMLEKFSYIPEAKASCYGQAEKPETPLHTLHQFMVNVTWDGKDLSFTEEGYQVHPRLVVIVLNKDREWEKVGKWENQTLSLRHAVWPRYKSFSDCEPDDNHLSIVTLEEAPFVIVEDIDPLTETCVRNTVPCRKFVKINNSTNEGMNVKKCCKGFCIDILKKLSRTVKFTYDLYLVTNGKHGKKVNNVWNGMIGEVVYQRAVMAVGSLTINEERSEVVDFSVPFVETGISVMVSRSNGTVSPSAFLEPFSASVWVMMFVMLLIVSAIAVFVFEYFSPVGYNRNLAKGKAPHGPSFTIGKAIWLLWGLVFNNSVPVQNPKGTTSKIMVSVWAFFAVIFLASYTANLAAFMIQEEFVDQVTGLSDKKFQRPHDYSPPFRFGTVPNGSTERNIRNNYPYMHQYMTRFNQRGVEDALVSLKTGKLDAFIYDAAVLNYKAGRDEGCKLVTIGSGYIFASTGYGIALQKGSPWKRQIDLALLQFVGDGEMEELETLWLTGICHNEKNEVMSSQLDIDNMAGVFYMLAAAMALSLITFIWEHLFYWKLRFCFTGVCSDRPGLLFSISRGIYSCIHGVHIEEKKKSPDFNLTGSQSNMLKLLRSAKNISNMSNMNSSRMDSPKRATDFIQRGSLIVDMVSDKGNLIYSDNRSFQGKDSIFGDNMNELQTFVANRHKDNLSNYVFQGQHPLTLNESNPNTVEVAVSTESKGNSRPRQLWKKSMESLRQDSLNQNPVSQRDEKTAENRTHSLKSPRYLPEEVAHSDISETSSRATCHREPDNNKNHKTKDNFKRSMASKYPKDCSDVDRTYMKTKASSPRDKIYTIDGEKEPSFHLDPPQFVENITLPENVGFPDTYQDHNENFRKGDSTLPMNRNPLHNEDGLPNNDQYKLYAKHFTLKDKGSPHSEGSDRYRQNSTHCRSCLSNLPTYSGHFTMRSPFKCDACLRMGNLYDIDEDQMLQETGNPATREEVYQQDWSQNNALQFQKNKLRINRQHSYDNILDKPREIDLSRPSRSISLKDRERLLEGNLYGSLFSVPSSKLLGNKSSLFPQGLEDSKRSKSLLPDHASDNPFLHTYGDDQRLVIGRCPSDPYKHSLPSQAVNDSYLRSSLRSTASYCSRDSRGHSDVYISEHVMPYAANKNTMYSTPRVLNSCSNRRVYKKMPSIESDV

Chain of Glutamate NMDA receptor; Grin1/Grin2b (Q00960 whole entry, looked up, other chains not shown): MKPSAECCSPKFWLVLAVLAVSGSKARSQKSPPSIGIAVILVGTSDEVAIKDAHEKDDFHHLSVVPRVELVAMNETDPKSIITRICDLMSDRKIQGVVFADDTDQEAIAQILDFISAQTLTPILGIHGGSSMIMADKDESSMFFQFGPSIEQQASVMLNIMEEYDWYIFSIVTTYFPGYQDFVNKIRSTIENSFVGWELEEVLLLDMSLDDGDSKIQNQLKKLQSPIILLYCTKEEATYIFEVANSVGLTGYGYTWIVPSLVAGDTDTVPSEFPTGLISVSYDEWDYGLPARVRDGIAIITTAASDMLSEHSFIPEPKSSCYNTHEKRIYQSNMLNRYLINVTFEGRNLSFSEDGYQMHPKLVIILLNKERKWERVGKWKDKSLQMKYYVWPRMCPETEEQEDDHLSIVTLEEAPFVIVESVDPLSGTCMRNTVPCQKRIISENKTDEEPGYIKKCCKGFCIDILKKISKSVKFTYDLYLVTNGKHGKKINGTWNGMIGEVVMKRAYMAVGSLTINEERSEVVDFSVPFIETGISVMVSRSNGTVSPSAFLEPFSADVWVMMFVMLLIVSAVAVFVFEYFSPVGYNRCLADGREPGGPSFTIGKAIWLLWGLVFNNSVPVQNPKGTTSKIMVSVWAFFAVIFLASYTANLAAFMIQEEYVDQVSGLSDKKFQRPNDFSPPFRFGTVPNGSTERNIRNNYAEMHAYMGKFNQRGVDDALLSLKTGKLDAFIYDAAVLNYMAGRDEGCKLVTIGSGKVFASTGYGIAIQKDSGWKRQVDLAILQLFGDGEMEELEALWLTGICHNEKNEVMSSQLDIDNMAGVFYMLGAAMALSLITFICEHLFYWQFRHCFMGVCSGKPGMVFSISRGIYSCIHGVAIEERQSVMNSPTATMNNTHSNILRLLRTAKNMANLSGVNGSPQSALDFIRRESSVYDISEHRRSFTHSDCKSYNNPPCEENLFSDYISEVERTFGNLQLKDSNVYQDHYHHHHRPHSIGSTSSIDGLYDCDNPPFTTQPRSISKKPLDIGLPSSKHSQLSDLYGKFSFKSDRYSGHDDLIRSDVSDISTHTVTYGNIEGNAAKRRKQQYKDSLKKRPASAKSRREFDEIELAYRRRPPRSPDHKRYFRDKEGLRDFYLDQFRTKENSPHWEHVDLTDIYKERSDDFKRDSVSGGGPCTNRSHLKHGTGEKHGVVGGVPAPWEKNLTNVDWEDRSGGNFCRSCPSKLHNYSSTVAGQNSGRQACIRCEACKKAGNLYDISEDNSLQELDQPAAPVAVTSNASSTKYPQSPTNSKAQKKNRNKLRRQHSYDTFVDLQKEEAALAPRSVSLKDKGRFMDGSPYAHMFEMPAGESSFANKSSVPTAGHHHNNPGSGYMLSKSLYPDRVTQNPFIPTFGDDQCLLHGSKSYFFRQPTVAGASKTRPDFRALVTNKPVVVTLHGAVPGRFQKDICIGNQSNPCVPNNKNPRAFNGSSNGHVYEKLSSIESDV
Chain of Glutamate receptor ionotropic, NMDA 2C (Q00961 whole entry, one chain of several): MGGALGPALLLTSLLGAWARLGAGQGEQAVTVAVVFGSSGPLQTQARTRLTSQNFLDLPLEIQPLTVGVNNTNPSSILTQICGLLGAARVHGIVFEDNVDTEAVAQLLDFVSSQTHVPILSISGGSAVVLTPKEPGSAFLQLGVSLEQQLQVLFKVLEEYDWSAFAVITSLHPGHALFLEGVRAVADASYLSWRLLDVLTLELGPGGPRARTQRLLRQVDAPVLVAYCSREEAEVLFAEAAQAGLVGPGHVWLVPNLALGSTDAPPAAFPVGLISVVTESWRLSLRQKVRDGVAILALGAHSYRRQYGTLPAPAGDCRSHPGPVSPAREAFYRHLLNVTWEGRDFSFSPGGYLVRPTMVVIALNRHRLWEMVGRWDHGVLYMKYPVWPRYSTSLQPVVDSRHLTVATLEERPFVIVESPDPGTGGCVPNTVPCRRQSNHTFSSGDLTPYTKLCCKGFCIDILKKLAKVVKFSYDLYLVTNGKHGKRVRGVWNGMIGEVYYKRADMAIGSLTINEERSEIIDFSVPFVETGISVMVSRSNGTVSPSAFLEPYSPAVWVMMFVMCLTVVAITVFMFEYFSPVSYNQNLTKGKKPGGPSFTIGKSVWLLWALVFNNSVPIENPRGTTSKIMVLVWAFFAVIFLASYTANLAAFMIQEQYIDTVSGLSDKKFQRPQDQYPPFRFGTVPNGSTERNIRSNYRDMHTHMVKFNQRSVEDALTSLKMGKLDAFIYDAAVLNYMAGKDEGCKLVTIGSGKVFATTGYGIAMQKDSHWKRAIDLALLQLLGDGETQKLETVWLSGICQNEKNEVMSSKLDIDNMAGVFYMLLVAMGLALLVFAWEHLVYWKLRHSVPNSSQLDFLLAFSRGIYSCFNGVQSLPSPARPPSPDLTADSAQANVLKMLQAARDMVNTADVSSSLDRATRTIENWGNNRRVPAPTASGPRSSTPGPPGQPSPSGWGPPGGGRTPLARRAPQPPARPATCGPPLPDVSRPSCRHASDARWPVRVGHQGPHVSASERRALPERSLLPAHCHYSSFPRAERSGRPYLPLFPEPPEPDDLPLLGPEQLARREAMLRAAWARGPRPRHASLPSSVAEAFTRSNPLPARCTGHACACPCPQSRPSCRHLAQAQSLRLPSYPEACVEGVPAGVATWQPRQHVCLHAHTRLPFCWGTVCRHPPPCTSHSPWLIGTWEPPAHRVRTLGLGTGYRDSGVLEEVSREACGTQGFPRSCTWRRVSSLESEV

| SMILES | IC50 [1] [µM] | IC50 [2] [µM] | IC50 [3] [µM] |
| --- | --- | --- | --- |
| O=c1[nH]c2ccccc2n1CCCN1CCC(Cc2ccc(F)cc2)CC1 | 0.11 | > 100 | > 100 |
| O=C1CNC(=O)N1CCCCCN1CCC(Cc2ccccc2)CC1 | 49 | > 100 | 88 |
| Oc1ccc(OCCN2CCC(Cc3ccccc3)CC2)cc1 |  | > 100 | > 100 |
| O=C1CNC(=O)N1CCCN1CCC(Cc2ccccc2)CC1 | 27 | > 100 | > 100 |
| O=c1[nH]c2ccccc2n1CCCN1CCC(Cc2ccccc2)CC1 | 0.095 | > 100 | > 100 |
| Oc1nc2ccccc2n1CCCCN1CCC(Cc2ccccc2)CC1 | 3.4 | > 100 | > 100 |
| O=C1CNC(=O)N1CCCCN1CCC(Cc2ccccc2)CC1 | 10 | > 100 | > 100 |
| O=c1[nH]c2ccccc2n1CCCCCN1CCC(Cc2ccccc2)CC1 | 11 | > 100 | > 100 |
